Assay results published in ChEMBL document CHEMBL3885881, “DrugMatrix”.

Species on record: Rattus norvegicus
Experiment: DrugMatrix - Regimen: Daily Repeat
Format: toxicity, organism-based, Sprague-Dawley
Parameters: regimen Daily Repeat, gender Male, age 6-8 weeks
Settings: in vivo, po, route oral GAVAGE, […]; for ABSOLUTE BASOPHIL / ABSOLUTE EOSINOPHIL / ABSOLUTE LYMPHOCYTE / ABSOLUTE MONOCYTE / ABSOLUTE SEGMENTED NEUTROPHIL / BASOPHIL / EOSINOPHIL / ERYTHROCYTE COUNT / HEMATOCRIT / HEMOGLOBIN / LEUKOCYTE COUNT / LYMPHOCYTE / MEAN CORPUSCULAR HEMOGLOBIN / MEAN CORPUSCULAR HEMOGLOBIN CONCENTRATION / MEAN CORPUSCULAR VOLUME / MONOCYTE / NEUTROPHIL / NUCLEATED RED BLOOD CELLS / PLATELET COUNT: tissue Blood; for ALANINE AMINOTRANSFERASE / ALBUMIN / ALKALINE PHOSPHATASE / ASPARTATE AMINOTRANSFERASE / BLOOD UREA NITROGEN / CARBON DIOXIDE / CHLORIDE / CHOLESTEROL / CREATINE PHOSPHOKINASE / CREATININE / GLUCOSE / LACTATE DEHYDROGENASE / LIPASE / PHOSPHORUS / POTASSIUM / SODIUM / TOTAL BILIRUBIN / TOTAL PROTEIN / URIC ACID: tissue Plasma
[1] = 0 mg/kg, 72 h, dose level Control, time 3 day
[2] = 0 mg/kg, 120 h, dose level Control, time 5 day
[3] = 30 mg/kg, 72 h, dose level Low, time 3 day
[4] = 30 mg/kg, 120 h, dose level Low, time 5 day

## Cc1ccc(-c2cc(C(F)(F)F)nn2-c2ccc(S(N)(=O)=O)cc2)cc1 [CELECOXIB]
[1]
  ABSOLUTE BASOPHIL: 0 CELLS/uL
  ABSOLUTE EOSINOPHIL: 104.17 CELLS/uL
  ABSOLUTE LYMPHOCYTE: 14547 CELLS/uL
  ABSOLUTE MONOCYTE: 292 CELLS/uL
  ABSOLUTE SEGMENTED NEUTROPHIL: 1640.17 CELLS/uL
  BASOPHIL: 0%
  EOSINOPHIL: 0.67%
  ERYTHROCYTE COUNT: 5.35 x10E6/uL
  HEMATOCRIT: 33.67%
  HEMOGLOBIN: 13.38 G/DL
  LEUKOCYTE COUNT: 16.58 x10E3/uL
  LYMPHOCYTE: 87.5%
  MEAN CORPUSCULAR HEMOGLOBIN: 25.05 pg
  MEAN CORPUSCULAR HEMOGLOBIN CONCENTRATION: 39.78 G/DL
  MEAN CORPUSCULAR VOLUME: 62.97 fL
  MONOCYTE: 1.83%
  NEUTROPHIL: 10%
  NUCLEATED RED BLOOD CELLS: 0 /100WBC
  PLATELET COUNT: 1274.5 x10E3/uL
  ALANINE AMINOTRANSFERASE: 76.83 u/L
  ALBUMIN: 3.97 G/DL
  ALKALINE PHOSPHATASE: 347 u/L
  ASPARTATE AMINOTRANSFERASE: 97.17 u/L
  BLOOD UREA NITROGEN: 14.33 mg/dL
  CARBON DIOXIDE: 25.5 mmol/L
  CHLORIDE: 100.33 MEQ/L
  CHOLESTEROL: 68.67 mg/dL
  CREATINE PHOSPHOKINASE: 659.17 u/L
  CREATININE: 0.32 mg/dL
  GLUCOSE: 160.67 mg/dL
  LACTATE DEHYDROGENASE: 271.5 u/L
  LIPASE: 11.67 u/L
  PHOSPHORUS: 10.65 mg/dL
  POTASSIUM: 5.95 MEQ/L
  SODIUM: 139.65 MEQ/L
  TOTAL BILIRUBIN: 0.2 mg/dL
  TOTAL PROTEIN: 5.72 G/DL
  URIC ACID: 1.37 mg/dL
[2]
  ABSOLUTE BASOPHIL: 0 CELLS/uL
  ABSOLUTE EOSINOPHIL: 331.5 CELLS/uL
  ABSOLUTE LYMPHOCYTE: 15021.67 CELLS/uL
  ABSOLUTE MONOCYTE: 376.5 CELLS/uL
  ABSOLUTE SEGMENTED NEUTROPHIL: 3070.33 CELLS/uL
  BASOPHIL: 0%
  EOSINOPHIL: 1.83%
  ERYTHROCYTE COUNT: 5.24 x10E6/uL
  HEMATOCRIT: 33.22%
  HEMOGLOBIN: 13.2 G/DL
  LEUKOCYTE COUNT: 18.8 x10E3/uL
  LYMPHOCYTE: 79.67%
  MEAN CORPUSCULAR HEMOGLOBIN: 25.17 pg
  MEAN CORPUSCULAR HEMOGLOBIN CONCENTRATION: 39.73 G/DL
  MEAN CORPUSCULAR VOLUME: 63.38 fL
  MONOCYTE: 2%
  NEUTROPHIL: 16.5%
  NUCLEATED RED BLOOD CELLS: 0 /100WBC
  PLATELET COUNT: 1142.67 x10E3/uL
  ALANINE AMINOTRANSFERASE: 52.5 u/L
  ALBUMIN: 3.9 G/DL
  ALKALINE PHOSPHATASE: 284.5 u/L
  ASPARTATE AMINOTRANSFERASE: 81.33 u/L
  BLOOD UREA NITROGEN: 16 mg/dL
  CARBON DIOXIDE: 25.33 mmol/L
  CHLORIDE: 99.5 MEQ/L
  CHOLESTEROL: 74.83 mg/dL
  CREATINE PHOSPHOKINASE: 448.33 u/L
  CREATININE: 0.37 mg/dL
  GLUCOSE: 164.17 mg/dL
  LACTATE DEHYDROGENASE: 290.67 u/L
  LIPASE: 6.83 u/L
  PHOSPHORUS: 11.5 mg/dL
  POTASSIUM: 6.28 MEQ/L
  SODIUM: 139.5 MEQ/L
  TOTAL BILIRUBIN: 0.13 mg/dL
  TOTAL PROTEIN: 5.55 G/DL
  URIC ACID: 1.12 mg/dL
[3]
  ABSOLUTE BASOPHIL: 0 CELLS/uL
  ABSOLUTE EOSINOPHIL: 104 CELLS/uL
  ABSOLUTE LYMPHOCYTE: 15747.67 CELLS/uL
  ABSOLUTE MONOCYTE: 360 CELLS/uL
  ABSOLUTE SEGMENTED NEUTROPHIL: 1788.33 CELLS/uL
  BASOPHIL: 0%
  EOSINOPHIL: 0.67%
  ERYTHROCYTE COUNT: 5.61 x10E6/uL
  HEMATOCRIT: 36.13%
  HEMOGLOBIN: 13.97 G/DL
  LEUKOCYTE COUNT: 18 x10E3/uL
  LYMPHOCYTE: 87.33%
  MEAN CORPUSCULAR HEMOGLOBIN: 24.9 pg
  MEAN CORPUSCULAR HEMOGLOBIN CONCENTRATION: 38.63 G/DL
  MEAN CORPUSCULAR VOLUME: 64.4 fL
  MONOCYTE: 2%
  NEUTROPHIL: 10%
  NUCLEATED RED BLOOD CELLS: 0.33 /100WBC
  PLATELET COUNT: 1151.67 x10E3/uL
  ALANINE AMINOTRANSFERASE: 77 u/L
  ALBUMIN: 4.2 G/DL
  ALKALINE PHOSPHATASE: 443 u/L
  ASPARTATE AMINOTRANSFERASE: 79.33 u/L
  BLOOD UREA NITROGEN: 10.67 mg/dL
  CARBON DIOXIDE: 22.67 mmol/L
  CHLORIDE: 102.67 MEQ/L
  CHOLESTEROL: 51 mg/dL
  CREATINE PHOSPHOKINASE: 260 u/L
  CREATININE: 0.12 mg/dL
  GLUCOSE: 164.33 mg/dL
  LACTATE DEHYDROGENASE: 234.67 u/L
  LIPASE: 10.67 u/L
  PHOSPHORUS: 11.63 mg/dL
  POTASSIUM: 6.08 MEQ/L
  SODIUM: 142.6 MEQ/L
  TOTAL BILIRUBIN: 0.13 mg/dL
  TOTAL PROTEIN: 6.07 G/DL
  URIC ACID: 1.27 mg/dL
[4]
  ABSOLUTE BASOPHIL: 0 CELLS/uL
  ABSOLUTE EOSINOPHIL: 252.67 CELLS/uL
  ABSOLUTE LYMPHOCYTE: 15009.33 CELLS/uL
  ABSOLUTE MONOCYTE: 640.67 CELLS/uL
  ABSOLUTE SEGMENTED NEUTROPHIL: 3164 CELLS/uL
  BASOPHIL: 0%
  EOSINOPHIL: 1.33%
  ERYTHROCYTE COUNT: 5.76 x10E6/uL
  HEMATOCRIT: 36.13%
  HEMOGLOBIN: 14 G/DL
  LEUKOCYTE COUNT: 19.07 x10E3/uL
  LYMPHOCYTE: 78.67%
  MEAN CORPUSCULAR HEMOGLOBIN: 24.33 pg
  MEAN CORPUSCULAR HEMOGLOBIN CONCENTRATION: 38.73 G/DL
  MEAN CORPUSCULAR VOLUME: 62.87 fL
  MONOCYTE: 3.33%
  NEUTROPHIL: 16.67%
  NUCLEATED RED BLOOD CELLS: 0 /100WBC
  PLATELET COUNT: 1265.67 x10E3/uL
  ALANINE AMINOTRANSFERASE: 70.67 u/L
